{"source": "paper PMC6391272", "about": "“Rex in Caldicellulosiruptor bescii: Novel regulon members and its effect on the production of ethanol and overflow metabolites” (MicrobiologyOpen, 2018)", "target": "T1, Rex (recombinant Rex, rRex) (Caldicellulosiruptor bescii, UniProt B9MPL7)", "T1 construct": "E. coli T7 Express; purified with IMPACT kit protocol", "T1 sequence (B9MPL7 1-217)": "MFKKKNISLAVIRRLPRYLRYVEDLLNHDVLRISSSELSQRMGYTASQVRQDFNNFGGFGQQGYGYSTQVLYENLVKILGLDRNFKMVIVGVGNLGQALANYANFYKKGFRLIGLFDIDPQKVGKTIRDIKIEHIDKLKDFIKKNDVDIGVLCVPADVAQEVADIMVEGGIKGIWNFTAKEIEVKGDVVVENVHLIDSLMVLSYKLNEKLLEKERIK", "assay": "electromobility shift assay (biotin-labelled […] bp operator dsDNA)", "details": "room temperature, 30 min; loss of operator DNA binding; NADH/NAD+ cofactor pool 1-100 umol/L", "data": [{"smiles": "NC(=O)C1=CN([C@@H]2O[C@H](COP(=O)(O)OP(=O)(O)OC[C@H]3O[C@@H](n4cnc5c(N)ncnc54)[C@H](O)[C@@H]3O)[C@@H](O)[C@H]2O)C=CC1", "note": "[NADH]", "values": [{"measurement": "electromobility shift assay (biotin-labelled 50 bp operator dsDNA)", "value": "DNA binding by Rex is disrupted by NADH and is sensitive to NADH/NAD ^+ ratio"}]}]}
